System: small-diameter DRG sensory neurons
Experiment: Whole-cell current-clamp recording of DRG neurons
Type: cell-based, mouse
Settings: 50 µM bilirubin
Procedure: DRG neurons from all spinal levels were collected in cold DH10 media (90% Dulbecco’s modified Eagle’s medium (DMEM)/F-12, 10% FBS, penicillin (100 U/mL), and streptomycin (100 μg/mL)). DRGs were digested with a dispase (5 mg/ml)/collagenase type I (1 mg/ml) enzyme mixture at 37°C for 45 min. After trituration, cells were spun at 300 g and re-suspended in DH10 before being plated on glass coverslips coated with poly-D-lysine (0.5 mg/ml) and laminin (10 μg/ml, Invitrogen). DRGs were cultured with DH10 supplemented with 50 ng/mL NGF at 37°C.
DRG neurons from 3 to 5 week old mice were collected as described. After culture for 1–3 days, DRG neurons were transferred into a chamber with extracellular solution containing (in mM) 144 NaCl, 2.5 KCl, 2 CaCl2, 0.5 MgCl2, 5 HEPES, and 10 glucose, adjusted to pH 7.4 with NaOH. Whole-cell current-clamp recordings were performed at ~23°C using borosilicate capillary glass electrodes (Sutter Instrument) with a tip resistance of 3–5 MΩ. Internal solution contained (in mM) 80 K-acetate, 30 KCl, 40 HEPES, and 1 CaCl2, adjusted to pH 7.4 with potassium hydroxide (KOH). Small-diameter neurons with diameter 15–25 μm were chosen for patch-clamp. Data were acquired using an […] Amplifier and Digidata 1322A Digitizer with pClamp9.2 software package (Axon Instrument). […] Solutions containing 50 mM KCl were applied at the end of each cellular recording. Only neurons that could fire action potentials after adding KCl were regarded as healthy and appropriate for inclusion in data analysis.

## C=CC1=C(C)/C(=C/c2[nH]c(Cc3[nH]c(/C=C4\NC(=O)C(C)=C4C=C)c(C)c3CCC(=O)O)c(CCC(=O)O)c2C)NC1=O [bilirubin, bilirubin IXα]
A1 KO DRG
  Small-diameter neurons in which action potentials were elicited: 0 out of 60
A1 KO DRG, listed as Bilirubin
  Small-diameter neurons in which action potentials were elicited: 0 of 60
WT DRG
  Small-diameter neurons in which action potentials were elicited: 5 out of 50
WT DRG, listed as Bilirubin
  Small-diameter neurons in which action potentials were elicited: 5 of 50
